From PubChem BioAssay (NCI)
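Each compound was tested at five concentrations against cells in 96-well plates for 48 hours. TGI denotes the concentration required for complete inhibition of growth.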

Assays:
Assay in all cases: NCI tumour cell line growth inhibition, 48 h
A498 renal = tested on: A498 renal
DMS 114 small cell lung = tested on: DMS 114 small cell lung
M19-MEL melanoma = tested on: M19-MEL melanoma
NCI-H23 lung = tested on: NCI-H23 lung
NCI-H460 lung = tested on: NCI-H460 lung
OVCAR-5 ovarian = tested on: OVCAR-5 ovarian
SF-539 CNS = tested on: SF-539 CNS
SNB-78 CNS = tested on: SNB-78 CNS
BT-549 breast = tested on: BT-549 breast
DU-145 prostate = tested on: DU-145 prostate
MDA-N = tested on: MDA-N
PC-3 prostate = tested on: PC-3 prostate

SMILES | TGI (A498 renal) | TGI (DMS 114 small cell lung) | TGI (M19-MEL melanoma) | TGI (NCI-H23 lung) | TGI (NCI-H460 lung) | TGI (OVCAR-5 ovarian) | TGI (SF-539 CNS) | TGI (SNB-78 CNS) | TGI (BT-549 breast) | TGI (DU-145 prostate) | TGI (MDA-N) | TGI (PC-3 prostate)
Cc1c(OCCCOc2ccc3c(=O)cc(-c4ccccc4)oc3c2C)ccc2c(=O)cc(-c3ccccc3)oc12 | > 100 µM | > 100 µM | > 100 µM | > 100 µM | > 100 µM | > 100 µM | > 100 µM | > 100 µM |  |  |  | 
Brc1c2nc3ccccc3nc2n2ccc3ccccc3c12 |  | > 100 µM | > 100 µM | > 100 µM | > 100 µM | > 100 µM | > 100 µM | > 100 µM |  |  |  | 
COc1cccc2c1C(=O)c1c(O)c3c(c(O)c1C2=O)C[C@@](O)(C(=O)CN1CCOCC1)C[C@@H]3OC1CC(N)C(O)C(C)O1 (some centres undefined) | 31.1 µM | 21.8 µM | 18.1 µM | 20.9 µM | > 69.9 µM | 57.6 µM | 23.6 µM |  |  |  |  | 
C/C=C/c1cc2c(c(=O)o1)C(=O)[C@@H](O)[C@H](C)O2 | 16.9 µM | 19.1 µM | 27.2 µM | 32.4 µM | 46.9 µM | 31.1 µM | 33.6 µM | 42 µM |  |  |  | 
C[N+](C)=c1ccc2nc3c(ccc4ccccc43)oc-2c1 | 32.6 µM | 54.4 µM | 12.5 µM | 27.2 µM | 37.7 µM | 37 µM | 32.2 µM | 20.8 µM |  |  |  | 
COc1ccc(C2S/C(=C\c3cccc(OC)c3)C(=O)N2NC(=O)Cc2ccccc2)cc1 (centres undefined) | > 100 µM |  | > 100 µM | > 100 µM | > 100 µM | > 100 µM | > 100 µM |  |  |  |  | 
CO[C@H]1CC[C@]2(C)C3=CC[C@@]4(C)C(CC[C@@H]4C(C)CC[C@@H](C)C(C)C)C(=CCC2C1)O3 (some centres undefined) | > 25 µM | > 25 µM | > 25 µM | > 7.9 µM | > 25 µM | > 25 µM | > 25 µM | > 25 µM |  |  |  | 
CC(=O)Oc1c2c(c(OC(C)=O)c3c1n(C(C)=O)c1ccccc1n3C(C)=O)n(C(C)=O)c1ccccc1n2C(C)=O | 39 µM | 7.96 µM | 14.4 µM | 25.7 µM | 15.4 µM |  | 30.8 µM |  |  |  |  | 
COc1cc(N)c2[nH]c3c(C)ccc(C)c3c2c1 |  | > 100 µM | > 100 µM |  | > 100 µM | > 100 µM | > 100 µM | > 100 µM |  |  |  | 
N=S(=O)(c1ccccc1)c1ccccc1 | > 100 µM | > 100 µM | > 100 µM | > 100 µM | > 100 µM | > 100 µM | > 100 µM | > 100 µM |  |  |  | 
CCCCCCCCCCCCCCCCNCC(O)CN (centres undefined) | 41.9 µM | 21 µM | 5.79 µM | 16.8 µM | 3.56 µM | 19.7 µM | 4.72 µM | 5.83 µM |  |  |  | 
Nc1ncnc2c1ncn2CCCC(c1ccccc1)P(=O)(O)O (centres undefined) | > 100 µM | > 100 µM | > 100 µM | > 100 µM | > 100 µM | > 100 µM | > 100 µM | > 100 µM |  |  |  | 
N=c1n(CC(=O)NC23CC4CC(CC(C4)C2)C3)c2ccccc2n1CC(=O)NC12CC3CC(CC(C3)C1)C2 | 3.15 µM | 3.67 µM | 3.09 µM | 3.13 µM | 3.17 µM | 3.08 µM | 3.36 µM | 6.38 µM |  |  |  | 
C/C(=N/NC(=S)Nc1cccc(Cl)c1)c1ccccn1 | 7.56 µM |  |  | 9.97 µM | 5.46 µM | 3.46 µM | 3.35 µM |  | 16 µM | 4.98 µM | 15.5 µM | 15.1 µM
c1ccc(C(c2cccc3c2ccc2ccccc23)C(c2ccccc2)c2cccc3c2ccc2ccccc23)cc1 (centres undefined) | > 100 µM |  |  | > 100 µM | > 100 µM | > 100 µM | > 100 µM |  | > 100 µM | > 100 µM | > 100 µM | > 100 µM
COC1=CC(=O)c2c(cc(COP(N)(=O)N(CCCl)CCCl)n2C)C1=O (centres undefined) | 5.39 µM |  |  | 3.41 µM | 4.31 µM | 4.21 µM | 2.19 µM |  | 2.14 µM | 5.71 µM | 4.09 µM | 10.1 µM
N/C(=N\NC(=O)c1nc2ccccc2s1)c1ccccn1 | 36.1 µM |  |  | 52.6 µM | 17.9 µM | 65.7 µM | 15.6 µM |  | > 100 µM | > 40.2 µM | > 100 µM | > 100 µM
Clc1ccc2nc3n[nH]c(Cl)c3nc2c1 | > 100 µM |  |  | > 100 µM | > 100 µM | > 100 µM | > 100 µM |  | > 100 µM | > 100 µM | > 100 µM | > 100 µM
C[N+](C)(C)CCOC(=O)/C=C/c1cnc[nH]1 | > 500 µM | > 500 µM | > 500 µM | > 500 µM | > 500 µM | > 500 µM | > 500 µM | > 500 µM |  |  |  | 
CC(=O)OC12CC(C(F)(F)F)(C(F)(F)F)OC1(OC(C)=O)CC(C(F)(F)F)(C(F)(F)F)O2 (centres undefined) | 8.57 µM |  |  | 8.71 µM | > 100 µM | 90.6 µM | 8.48 µM |  | > 100 µM | 70.4 µM | > 100 µM | > 100 µM
O=C(NC12CC3CC(CC(C3)C1)C2)C(=O)c1c[nH]c2ccc(Br)cc12 |  | > 100 µM |  | > 100 µM | 27 µM | > 100 µM | 51.3 µM | > 100 µM |  |  |  | 
